{"source": "paper PMC6606765", "about": "“Stargazin and γ4 slow the channel opening and closing rates of GluA4 AMPA receptors” (Scientific Reports, 2019)", "key": {"[1]": {"molecular_target": "T1, GluA4 homomeric channels (Rattus norvegicus, UniProt P19493)", "T1 construct": "expressed in transfected cells; host or cells: HEK-293S", "T1 sequence (P19493 21-902 isoform P19493-2 limits assumed)": "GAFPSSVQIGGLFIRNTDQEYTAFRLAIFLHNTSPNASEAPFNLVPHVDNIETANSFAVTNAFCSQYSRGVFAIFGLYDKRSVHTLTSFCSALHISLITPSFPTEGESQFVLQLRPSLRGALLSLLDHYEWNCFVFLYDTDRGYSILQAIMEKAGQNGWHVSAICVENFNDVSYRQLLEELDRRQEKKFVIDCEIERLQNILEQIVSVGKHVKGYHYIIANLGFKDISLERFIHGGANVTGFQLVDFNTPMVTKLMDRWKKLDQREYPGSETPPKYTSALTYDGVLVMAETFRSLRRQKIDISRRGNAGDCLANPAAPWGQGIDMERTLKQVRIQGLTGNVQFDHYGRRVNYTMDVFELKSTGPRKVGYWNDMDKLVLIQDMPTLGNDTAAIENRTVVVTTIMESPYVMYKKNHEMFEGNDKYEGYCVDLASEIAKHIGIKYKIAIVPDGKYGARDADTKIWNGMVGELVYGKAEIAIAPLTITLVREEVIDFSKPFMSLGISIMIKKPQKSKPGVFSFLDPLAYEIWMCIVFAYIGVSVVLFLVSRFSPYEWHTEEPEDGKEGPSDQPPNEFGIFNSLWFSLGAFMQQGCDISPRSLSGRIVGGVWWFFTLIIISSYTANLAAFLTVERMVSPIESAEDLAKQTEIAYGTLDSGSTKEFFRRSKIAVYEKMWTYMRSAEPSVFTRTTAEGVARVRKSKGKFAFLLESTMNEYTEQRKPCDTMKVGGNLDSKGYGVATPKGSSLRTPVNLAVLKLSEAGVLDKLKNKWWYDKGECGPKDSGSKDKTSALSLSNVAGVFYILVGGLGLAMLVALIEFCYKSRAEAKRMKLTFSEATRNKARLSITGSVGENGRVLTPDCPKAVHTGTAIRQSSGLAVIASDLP", "design": "method as in PMID 15823042", "conditions": "GluA4 alone; cited from earlier work"}, "[2]": {"molecular_target": "T2, GluA4/γ4 (Rattus norvegicus, UniProt P19493)", "T2 construct": "expressed in transfected cells; host or cells: HEK-293S", "T2 sequence (P19493 21-902 isoform P19493-2 limits assumed)": "as above", "assay": "Whole-cell current recording with fast solution flow (dose-response, desensitization) in transfected HEK-293 cells", "type": "cell-based", "experimental": "(§1) The γ-2 and γ-4 plasmids were generously provided by Prof. Susumu Tomita. The flip isoform of GluA4[30] with and without a TARP was transiently expressed in HEK-293S cell. The tissue culture and transfection procedure were described before. In brief, HEK-293S cells were cultured in Dulbecco’s modified Eagle’s medium supplemented with 10% fetal bovine serum, 100 U/mL penicillin, and 100 μg/mL streptomycin in a 37 °C, 6% CO2, humidified incubator. In co-transfecting a TARP, we used 1:1 and 1:2 weight ratio of the plasmid of GluA4 to a TARP (GluA4 plasmid was 3–6 μg/35 mm dish). Co-transfection also included green fluorescent protein (GFP) and large T-antigen (TAg)[46]. We also added a 2,3-benzodiazepine inhibitor[47] after transfection to prevent cell toxicity due to transfection of TARP. Transfected cells were grown for >48 h before recording.\n(§2) Briefly, the pipet solution or internal solution contained (in mM) 110 CsF, 30 CsCl, 4 NaCl, 0.5 CaCl2, 5 EGTA, and 10 HEPES (pH 7.4 adjusted by NaOH). The external cellular solution or bath solution contained (in mM) 150 NaCl, 3 KCl, 1 CaCl2, 1 MgCl2, and 10 HEPES (pH 7.4 adjusted by NaOH)[46]. The GFP fluorescence in transfected cells was visualized on an Axiovert S100 microscope with a fluorescent detection system from Carl Zeiss. The whole-cell current was recorded using an Axopatch-200B amplifier at a cutoff frequency of 2–20 kHz by a built-in, four-pole Bessel filter and digitized at 5–50 kHz sampling frequency using an Axon Digidata 1322 A. Unless otherwise noted, all experiments were performed with transfected HEK-293S cells voltage-clamped at −60 mV and at 22 °C.\n(§3) The laser-pulse photolysis technique was used to measure the channel-opening kinetic constants of an AMPA receptor, as we previously reported. […] A Minilite II pulsed Q-switched Nd:YAG laser (Continuum, Santa Clara, CA) delivered single pulses at 355 nm with a pulse length of 8 ns.\n(§4) Based on this general, minimal mechanism of channel opening, Eq. 1 was derived. In Eq. 1, IA is the observed amplitude of macroscopic current amplitude, IM is the current per mole of receptor, RM the number of moles of receptors on the cell surface, and Φ^−1 the channel opening equilibrium constant. A non-linear regression was performed to determine K1, along with other parameters, from a dose-response relationship. Each of the current traces was corrected for desensitization before it was used in calculating dose-response relationship[48].1 IA=IMRML^n/L^n+Φ(L+K1)^n"}, "[3]": {"molecular_target": "T1, GluA4 homomeric channels", "assay": "Whole-cell current recording with fast solution flow (dose-response, desensitization) in transfected HEK-293 cells", "type": "cell-based", "experimental": "as §1, §2, §3, §4"}, "[4]": {"molecular_target": "T3, GluA4/γ2 (Rattus norvegicus, UniProt P19493)", "T3 construct": "expressed in transfected cells; host or cells: HEK-293S", "T3 sequence (P19493 21-902 isoform P19493-2 limits assumed)": "as above", "assay": "Whole-cell current recording with fast solution flow (dose-response, desensitization) in transfected HEK-293 cells", "type": "cell-based", "experimental": "as §1, §2, §3, §4"}, "[5]": {"molecular_target": "T2, GluA4/γ4", "assay": "Laser-pulse photolysis of caged glutamate with whole-cell current recording (channel-opening kinetics)", "type": "cell-based", "experimental": "as §1, §2, §3\n(§5) The kop and kcl values were determined from the rising phase of a whole-cell current trace in a laser-pulse photolysis experiment. […] The observed first-order rate constant of channel opening, kobs, was estimated by using Eq. 22 It=Imax(1−e^−kobst) where It and Imax represent the whole-cell current amplitude at time t, and the maximum current amplitude, respectively. Based on the general mechanism of channel opening, Eq. 3 was derived to describe the relationship between kobs and ligand concentration:3 kobs=kcl+kop(L/L+K1)^n\n(§6) In deriving Eq. 3, we assumed the rate of ligand binding was fast relative to the rate of channel opening."}, "[6]": {"molecular_target": "T1, GluA4 homomeric channels", "assay": "Laser-pulse photolysis of caged glutamate with whole-cell current recording (channel-opening kinetics)", "type": "cell-based", "conditions": "linear fit of kobs vs glutamate concentration, Eq. 3, ±SEM", "experimental": "as §1, §2, §3, §5, §6"}, "[7]": {"molecular_target": "T3, GluA4/γ2", "assay": "Laser-pulse photolysis of caged glutamate with whole-cell current recording (channel-opening kinetics)", "type": "cell-based", "experimental": "as §1, §2, §3, §5, §6"}, "[8]": {"conditions": "best fit of dose-response with Eq. 1"}, "[9]": {"conditions": "mean ±SD, saturated whole-cell responses evoked by 10 and 20 mM glutamate, HEK-293S, −60 mV, 22 °C"}, "[10]": {"conditions": "Table S3A nonlinear fitting, kcl fixed 900 s-1"}, "[11]": {"conditions": "Table S3A nonlinear fitting, kcl fixed 1100 s-1"}, "[12]": {"conditions": "Table S3A nonlinear fitting, kcl fixed 1300 s-1"}, "[13]": {"conditions": "linear fit of kobs vs glutamate concentration, Eq. 3, ±SEM"}, "[14]": {"conditions": "Table S2A nonlinear fitting, kcl fixed 1000 s-1"}, "[15]": {"conditions": "Table S2A nonlinear fitting, kcl fixed 1200 s-1"}, "[16]": {"conditions": "Table S2A nonlinear fitting, kcl fixed 1400 s-1"}}, "note": "“And” between values parts separate entries of the source, which are not always exact repeats. Equal entries are not always repeated."}
{"smiles": "N[C@@H](CCC(=O)O)C(=O)O", "note": "[glutamate]", "values": [{"measurement": "Popen (channel-opening probability)", "setting": "[1]", "value": 0.96}, {"measurement": "Φ (Φ^−1 = channel opening equilibrium constant)", "setting": "[2]; [8]", "value": "0.39 ± 1.36"}, {"measurement": "Hill Coefficient", "setting": "[2]; dose-response curve", "value": "1.08 ± 0.10"}, {"measurement": "kdes (maximum desensitization rate constant)", "setting": "[2]; [9]", "value": "90 ± 12", "unit": "s⁻¹"}, {"measurement": "Φ (Φ^−1 = channel opening equilibrium constant)", "setting": "[3]; [8]", "value": "0.36 ± 0.88"}, {"measurement": "Hill Coefficient", "setting": "[3]; dose-response curve", "value": "2.18 ± 0.21"}, {"measurement": "kdes (maximum desensitization rate constant)", "setting": "[3]; [9]", "value": "181 ± 7", "unit": "s⁻¹"}, {"measurement": "Φ (Φ^−1 = channel opening equilibrium constant)", "setting": "[4]; [8]", "value": "0.41 ± 0.95"}, {"measurement": "Hill Coefficient", "setting": "[4]; dose-response curve", "value": "1.07 ± 0.14"}, {"measurement": "kdes (maximum desensitization rate constant)", "setting": "[4]; [9]", "value": "135 ± 11", "unit": "s⁻¹"}, {"measurement": "Popen (channel-opening probability)", "setting": "[5]; Popen = kop/(kop + kcl)", "value": "~ 0.93"}, {"measurement": "kop, final output Ave.", "setting": "[5]; [10]", "value": 16862, "unit": "s⁻¹"}, {"measurement": "n, final output Ave.", "setting": "[5]; [10]", "value": 1.99}, {"measurement": "kop, final output Ave.", "setting": "[5]; [11]", "value": 16375, "unit": "s⁻¹"}, {"measurement": "n, final output Ave.", "setting": "[5]; [11]", "value": 2.20}, {"measurement": "kop, final output Ave.", "setting": "[5]; [12]", "value": 15640, "unit": "s⁻¹"}, {"measurement": "n, final output Ave.", "setting": "[5]; [12]", "value": 2.41}, {"measurement": "kop, final output Ave.", "setting": "[5]; Table S3B nonlinear fitting, n fixed 2, kcl fixed 900 s-1", "value": 15152, "unit": "s⁻¹"}, {"measurement": "kop, final output Ave.", "setting": "[5]; Table S3B nonlinear fitting, n fixed 2, kcl fixed 1100 s-1", "value": 13642, "unit": "s⁻¹"}, {"measurement": "kop, final output Ave.", "setting": "[5]; Table S3B nonlinear fitting, n fixed 2, kcl fixed 1300 s-1", "value": 11557, "unit": "s⁻¹"}, {"measurement": "kcl (channel-closing rate constant)", "setting": "[5]; [13]", "value": "1.1 ± 0.1 x 10^3 s^−1 and 1.08 ± 0.05 x 10^3 s^−1"}, {"measurement": "kop (channel-opening rate constant)", "setting": "[5]; [13]", "value": "1.7 ± 0.2 x10^4 s^−1 and 1.70 ± 0.15 x10^4 s^−1"}, {"measurement": "kcl (channel-closing rate constant)", "setting": "[6]", "value": "3.4 ± 0.1 x 10^3 s^−1 and 3.39 ± 0.11 x 10^3 s^−1"}, {"measurement": "kop (channel-opening rate constant)", "setting": "[6]", "value": "6.4 ± 0.4 x10^4 s^−1 and 6.41 ± 0.44 x10^4 s^−1"}, {"measurement": "Popen (channel-opening probability)", "setting": "[7]; Popen = kop/(kop + kcl)", "value": "~ 0.93"}, {"measurement": "kop, final output Ave.", "setting": "[7]; [14]", "value": 17591, "unit": "s⁻¹"}, {"measurement": "n, final output Ave.", "setting": "[7]; [14]", "value": 1.59}, {"measurement": "kop, final output Ave.", "setting": "[7]; [15]", "value": 19225, "unit": "s⁻¹"}, {"measurement": "n, final output Ave.", "setting": "[7]; [15]", "value": 1.88}, {"measurement": "kop, final output Ave.", "setting": "[7]; [16]", "value": 22936, "unit": "s⁻¹"}, {"measurement": "n, final output Ave.", "setting": "[7]; [16]", "value": 2.11}, {"measurement": "kop, final output Ave.", "setting": "[7]; Table S2B nonlinear fitting, n fixed 2, kcl fixed 1000 s-1", "value": 15488, "unit": "s⁻¹"}, {"measurement": "kop, final output Ave.", "setting": "[7]; Table S2B nonlinear fitting, n fixed 2, kcl fixed 1200 s-1", "value": 15607, "unit": "s⁻¹"}, {"measurement": "kop, final output Ave.", "setting": "[7]; Table S2B nonlinear fitting, n fixed 2, kcl fixed 1400 s-1", "value": 18961, "unit": "s⁻¹"}, {"measurement": "kcl (channel-closing rate constant)", "setting": "[7]; [13]", "value": "1.2 ± 0.1 x 10^3 s^−1 and 1.17 ± 0.11 x 10^3 s^−1"}, {"measurement": "kop (channel-opening rate constant)", "setting": "[7]; [13]", "value": "1.3 ± 0.1 x10^4 s^−1 and 1.32 ± 0.12 x10^4 s^−1"}]}
